Ten molecules from patent US4201790A, “Benzophenone derivatives” (May & Baker Limited, priority 1975, dated 1980) can be followed below.

Data set [1] is described as follows: Acute toxicity, mouse, oral. Conditions: in vivo.
Data set [2] deals with β-adrenoceptors mediating vasodilation. Nature of the data set: Test I. β-Adrenoceptor blocking activity in the anaesthetised cat (intravenous), vascular (isoprenaline fall in diastolic blood pressure). It is filed as in vivo. Particulars: for i.v. Dose Vascular (dose required to reduce fall in diastolic blood pressure produced by whole dose of isoprenaline to that produced by half dose): hydrochloride salts, isoprenaline 210 seconds after test compound; for Ratio cardiac dose / vascular dose: i.v. On the procedure:
(§1) Test I. β-Adrenoceptor blocking activity in the anaesthetised cat (intravenous administration).
(§2) Cats were anaesthetised with a mixture of pentobarbitone (6-12 mg./kg.) and chloralose suspension (80 mg./kg.) administered intraperitoneally. The heart rate was recorded from the E.C.G. or from the pulse, and blood pressure was recorded from the carotid artery. Whole (0.3-0.6 μg.) and half (0.15-0.3 μg.) doses of isoprenaline were then administered, intravenously via the jugular vein, alternately at 7 minute intervals over a period of several hours. 210 seconds after a half dose of isoprenaline, one of the compounds under test was administered intravenously. 210 seconds later the whole dose of isoprenaline was administered. The doses of the test compound required to reduce (1) the tachycardia and (2) the fall in diastolic blood pressure produced by the whole dose of isoprenaline to that produced by the half dose were determined. The former response gives a measure of the ability of the test compound to block β-adrenoceptors in the heart while the latter response gives a measure of the ability of the test compound to block the β-adrenoceptors mediating vasodilation.
(§3) Those hydrochloride salts of compounds A, G, H and J were dissolved in water and administered in aqueous solution. Compounds B, C, D, E, F and I were each dissolved in dilute aqueous hydrochloric acid solution (0.1 N) and the solution thus obtained was neutralised by treatment with aqueous sodium hydroxide solution (0.1 N), to give a neutral solution of the hydrochloride salt of the test compound suitable for administration.

For data set [3], the system named is β-adrenoceptors in the heart. Nature of the data set: Test I. β-Adrenoceptor blocking activity in the anaesthetised cat (intravenous), cardiac (isoprenaline tachycardia). The class given is in vivo. Particulars: hydrochloride salts, isoprenaline 210 seconds after test compound. On the procedure:
as §1, §2, §3

The nature of data set [4]: Acute toxicity, mouse, intravenous. Conditions: in vivo, read-out: i.v. LD80.
The nature of data set [5]: Toxicity, rat, oral, two weeks. It is filed as in vivo. Particulars: oral daily doses of 12, 24, 48 or 96 mg./kg. during two weeks.
For data set [6], the system named is β-adrenoceptors mediating vasodilation. Put plainly: Test II. β-Adrenoceptor blocking activity in the anaesthetised dog (intravenous), vascular. It is filed as in vivo. Conditions: i.v., hydrochloride salt. Here is the method:
as §2
(§4) Test II. β-Adrenoceptor blocking activity in the anaesthetised rhesus monkey and in the anaesthetised dog (intravenous administration)
(§5) Test compound A (hydrochloride salt) was tested intravenously in anaesthetised rhesus monkeys and dogs by proceeding in a similar fashion to that described above in Test I.

The test system is the same in data set [7]. Put plainly: Test III. β-Adrenoceptor blocking activity in the anaesthetised dog (oral), vascular. Conditions: hydrochloride salt. It is filed as in vivo. Here is the method: as §2
(§6) Test III. β-Adrenoceptor blocking activity in the anaesthetised dog (oral administration)
(§7) Test compound A(hydrochloride salt) was tested orally in anaesthetised dogs by proceeding in a similar fashion to that described above in Test I and Test II. The results are expressed below in Table III.

Data set [8] has as its system β-adrenoceptors in the heart. Put plainly: Test III. β-Adrenoceptor blocking activity in the anaesthetised dog (oral), cardiac. Conditions: hydrochloride salt. It is filed as in vivo. On the procedure:
as §2, §6, §7

For data set [9], the system named is β-adrenoceptors mediating vasodilation. Put plainly: Test II. β-Adrenoceptor blocking activity in the anaesthetised rhesus monkey (intravenous), vascular. Particulars: i.v., hydrochloride salt. The class given is in vivo. Here is the method: as §2, §4, §5
The nature of data set [10]: Toxicity, dog, oral, two weeks. It is filed as in vivo, dog (beagle). Conditions: beagles, oral daily doses of 10, 50 or 100 mg./kg. during two weeks. On the procedure:
Two groups, each of two males and two females, each received a daily dose of 10 or 50 mg./kg. animal body weight and one group, of one male and one female, received a daily dose of 100 mg./kg. animal body weight.

Data set [11] deals with β-adrenoceptors in the heart. Nature of the data set: Test II. β-Adrenoceptor blocking activity in the anaesthetised rhesus monkey (intravenous), cardiac. It is filed as in vivo. Particulars: i.v., hydrochloride salt. Here is the method:
as §2, §4, §5

Data set [12] relates to β-adrenoceptors in the heart. Nature of the data set: Test II. β-Adrenoceptor blocking activity in the anaesthetised dog (intravenous), cardiac. Conditions: i.v., hydrochloride salt. The class given is in vivo. Here is the method:
as §2, §4, §5

Structures are written as SMILES.

For `Cc1ccc(C(=O)c2c(C)cc(C)cc2OCC(O)CNC(C)C)cc1` (racemic) [B, DL-1-(3,5-dimethyl-2-p-toluoylphenoxy)-2-hydroxy-3-isopropylaminopropane], the figures for the LD50 in [1] and in data set [4] were roughly 1000 mg/kg and 25 to 31 mg/kg, respectively. In data set [2], the “i.v. Dose Vascular (dose required to reduce fall in diastolic blood pressure produced by whole dose of isoprenaline to that produced by half dose)” value is given as 0.031 mg./kg. animal body weight. Besides, the “Ratio cardiac dose / vascular dose” value in [2] is 93.5. In data set [3], the “i.v. Dose Cardiac (dose required to reduce tachycardia produced by whole dose of isoprenaline to that produced by half dose)” value is 2.9 mg./kg. animal body weight.

Regarding `Cc1cc(C)c(C(=O)c2ccccc2)c(OCC(O)CNC(C)C)c1` (racemic) [Compound A, DL-1-(2-benzoyl-3,5-dimethylphenoxy)-2-hydroxy-3-isopropylaminopropane], the tolerability result in [5] and in data set [10] was “well tolerated” each time. For the same molecule, the Dose vascular in data set [6] (210 second interval after dose) is recorded as < 0.02 mg./kg. animal body weight; in data set [6] (one hour interval after dose), < 0.02 mg./kg. animal body weight; in data set [9] (210 second interval after dose), 0.0087 mg./kg. animal body weight; in data set [9] (one hour interval after dose), 0.0076 mg./kg. animal body weight. Also, the Oral dose vascular in [7] (1 hour after dose) is on record as < 0.1 mg./kg. animal body weight; in data set [7] (2 hours after dose), 0.08 mg./kg. animal body weight; in [7] (3 hours after dose), 0.1 mg./kg. animal body weight. Further, in data set [2], the “i.v. Dose Vascular (dose required to reduce fall in diastolic blood pressure produced by whole dose of isoprenaline to that produced by half dose)” value is on record as 0.023 mg./kg. animal body weight. Also, the “Ratio cardiac dose / vascular dose” value in [2] worked out at 48. Further, in [3], the “i.v. Dose Cardiac (dose required to reduce tachycardia produced by whole dose of isoprenaline to that produced by half dose)” value is given as 1.1 mg./kg. animal body weight. The LD50 in data set [4] is 40 mg/kg. Besides, the Oral dose cardiac in [8] (1 hour after dose) is given as 4 mg./kg. animal body weight; in data set [8] (2 hours after dose) it was 3.2 mg./kg. animal body weight; in data set [8] (3 hours after dose) it was 6 mg./kg. animal body weight. Also, the Dose cardiac was 0.1 mg./kg. animal body weight in [11] (210 second interval after dose), > 1 mg./kg. animal body weight in [11] (one hour interval after dose), 0.1 mg./kg. animal body weight in [12] (210 second interval after dose) and 0.13 mg./kg. animal body weight in [12] (one hour interval after dose).

Turning to `Cc1cc(C)c(C(=O)c2ccccc2)c(OCC(O)CNC(C)C)c1C` (racemic) [Compound C, DL-1-(2-benzoyl-3,5,6-trimethylphenoxy)-2-hydroxy-3-isopropylaminopropane], in data set [2], the “i.v. Dose Vascular (dose required to reduce fall in diastolic blood pressure produced by whole dose of isoprenaline to that produced by half dose)” value is 2.3 mg./kg. animal body weight and the “Ratio cardiac dose / vascular dose” value was determined as 1.9. In data set [3], the “i.v. Dose Cardiac (dose required to reduce tachycardia produced by whole dose of isoprenaline to that produced by half dose)” value is reported as 4.4 mg./kg. animal body weight. In addition, in data set [4], the LD50 turned out to be 23 mg/kg.

`Cc1ccc(C(=O)c2c(C)cc(C)cc2OCC(O)CNC(C)(C)C)cc1` (racemic) [Compound I, DL-1-t-butylamino-3-(3,5-dimethyl-2-p-toluoylphenoxy)-2-hydroxypropane]: in data set [2], the “i.v. Dose Vascular (dose required to reduce fall in diastolic blood pressure produced by whole dose of isoprenaline to that produced by half dose)” value is given as 0.027 mg./kg. animal body weight and the “Ratio cardiac dose / vascular dose” value is 17. In addition, the “i.v. Dose Cardiac (dose required to reduce tachycardia produced by whole dose of isoprenaline to that produced by half dose)” value in data set [3] was 0.46 mg./kg. animal body weight. Also, the LD50 in [4] stood at 24 mg/kg.

Regarding `Cc1ccc(C(=O)c2c(C)cc(C)cc2OCC(O)CNCCc2ccccc2)cc1` (racemic) [Compound J, DL-1-(3,5-dimethyl-2-p-toluoylphenoxy)-2-hydroxy-3-(2-phenylethylamino)propane], in data set [2], the “i.v. Dose Vascular (dose required to reduce fall in diastolic blood pressure produced by whole dose of isoprenaline to that produced by half dose)” value is listed as 0.068 mg./kg. animal body weight and the “Ratio cardiac dose / vascular dose” value came to 29. The “i.v. Dose Cardiac (dose required to reduce tachycardia produced by whole dose of isoprenaline to that produced by half dose)” value in data set [3] was ~2.0 mg./kg. animal body weight.

As to `Cc1cc(C)c(C(=O)c2ccccc2C)c(OCC(O)CNC(C)C)c1` (racemic) [D, DL-1-(3,5-dimethyl-2-o-toluoylphenoxy)-2-hydroxy-3-isopropylaminopropane], in data set [2], the “i.v. Dose Vascular (dose required to reduce fall in diastolic blood pressure produced by whole dose of isoprenaline to that produced by half dose)” value was 0.16 mg./kg. animal body weight and the “Ratio cardiac dose / vascular dose” value was determined as 5.0. Moreover, the “i.v. Dose Cardiac (dose required to reduce tachycardia produced by whole dose of isoprenaline to that produced by half dose)” value in data set [3] was 0.8 mg./kg. animal body weight. In data set [4], the LD50 turned out to be 34 mg/kg.

Take `Cc1cc(C)c(C(=O)c2c(C)cccc2C)c(OCC(O)CNC(C)C)c1` (racemic) [E, DL-1-[2-(2,6-dimethylbenzoyl)-3,5-dimethylphenoxy]-2-hydroxy-3-isopropylaminopropane]: in data set [2], the “i.v. Dose Vascular (dose required to reduce fall in diastolic blood pressure produced by whole dose of isoprenaline to that produced by half dose)” value was 1.8 mg./kg. animal body weight and the “Ratio cardiac dose / vascular dose” value was 2.1. Also, the “i.v. Dose Cardiac (dose required to reduce tachycardia produced by whole dose of isoprenaline to that produced by half dose)” value in [3] is 3.7 mg./kg. animal body weight. In addition, the LD50 in data set [4] is 42 mg/kg.

Turning to `Cc1ccc(C(=O)c2c(C)cc(C)cc2OCC(O)CNC(C)C)c(C)c1` (racemic) [F, DL-1-[2-(2,4-dimethylbenzoyl)-3,5-dimethylphenoxy]-2-hydroxy-3-isopropylaminopropane], in data set [2], the “i.v. Dose Vascular (dose required to reduce fall in diastolic blood pressure produced by whole dose of isoprenaline to that produced by half dose)” value is 0.24 mg./kg. animal body weight and the “Ratio cardiac dose / vascular dose” value is recorded as 2.5. Moreover, in data set [3], the “i.v. Dose Cardiac (dose required to reduce tachycardia produced by whole dose of isoprenaline to that produced by half dose)” value was 0.59 mg./kg. animal body weight. The LD50 in data set [4] is 24 mg/kg.

Consider `Cc1ccc(C)c(C(=O)c2ccccc2)c1OCC(O)CNC(C)C` (racemic) [G, DL-1-(2-benzoyl-3,6-dimethylphenoxy)-2-hydroxy-3-isopropylaminopropane], for which, in [2], the “i.v. Dose Vascular (dose required to reduce fall in diastolic blood pressure produced by whole dose of isoprenaline to that produced by half dose)” value is 4.2 mg./kg. animal body weight and the “Ratio cardiac dose / vascular dose” value amounted to 1.7. Moreover, the “i.v. Dose Cardiac (dose required to reduce tachycardia produced by whole dose of isoprenaline to that produced by half dose)” value in [3] is on record as 7.1 mg./kg. animal body weight.

On to `Cc1cc(C)c(C(=O)c2ccc(Cl)cc2)c(OCC(O)CNC(C)C)c1` (racemic) [H, DL-1-(2-p-chlorobenzoyl-3,5-dimethylphenoxy)-2-hydroxy-3-isopropylaminopropane], for which, in data set [2], the “i.v. Dose Vascular (dose required to reduce fall in diastolic blood pressure produced by whole dose of isoprenaline to that produced by half dose)” value is on record as 0.037 mg./kg. animal body weight and the “Ratio cardiac dose / vascular dose” value was 19. Besides, the “i.v. Dose Cardiac (dose required to reduce tachycardia produced by whole dose of isoprenaline to that produced by half dose)” value in data set [3] is given as 0.72 mg./kg. animal body weight. In data set [4], the LD50 was 32 to 40 mg/kg.
